Reference: the NIST ThermoML archive (doi:10.1021/je025610o)
± gives the expanded uncertainty stated by the source.

How the values were obtained:
[1] = 100 kPa, Liquid, Capillary tube (Ostwald / Ubbelohde) method
[2] = xn = mol fraction of the nth substance listed; details: 100 kPa, Liquid; for thermal conductivity: Hot wire method

OCCO [1,2-ethanediol]
[1]
Details	viscosity [mPa·s]
295.55 K	19.1 ± 0.4
313.05 K	9.74 ± 0.2
333.1 K	5.24 ± 0.11
353.05 K	3.13 ± 0.07
372.15 K	2.06 ± 0.04
392.45 K	1.44 ± 0.03
412.25 K	1.07 ± 0.02
428.3 K	0.867 ± 0.018

OCCO [1,2-ethanediol] + O
[2]
Details	mass density [kg/m3]	thermal conductivity [W/m/K]	viscosity [mPa·s]
296.4 K, x1 = 0.25	1068 ± 2	–	–
296.45 K, x1 = 0.25	–	–	3.69 ± 0.11
297.05 K, x1 = 0.5	1094 ± 2	–	7.61 ± 0.21
297.35 K, x1 = 0.75	1106 ± 2	–	12.3 ± 0.3
298.5 K, x1 = 0.75	–	0.269 ± 0.005	–
303.4 K, x1 = 0.25	–	0.391 ± 0.008	–
312.3 K, x1 = 0.5	–	0.316 ± 0.006	–
313.05 K, x1 = 0.25	1058 ± 2	–	2.29 ± 0.07
313.05 K, x1 = 0.5	1083 ± 2	–	4.49 ± 0.13
313.05 K, x1 = 0.75	1094 ± 2	–	6.97 ± 0.19
323.6 K, x1 = 0.25	–	0.4 ± 0.008	–
324.2 K, x1 = 0.75	–	0.272 ± 0.006	–
324.4 K, x1 = 0.5	–	0.314 ± 0.006	–
333.05 K, x1 = 0.25	1045 ± 2	–	1.47 ± 0.04
333.1 K, x1 = 0.5	1069 ± 2	–	2.62 ± 0.08
333.1 K, x1 = 0.75	1080 ± 2	–	3.88 ± 0.11
347.5 K, x1 = 0.75	–	0.277 ± 0.006	–
347.7 K, x1 = 0.5	–	0.324 ± 0.007	–
348.6 K, x1 = 0.25	–	0.416 ± 0.008	–
353.05 K, x1 = 0.25	1030 ± 2	–	0.99 ± 0.03
353.05 K, x1 = 0.5	1054 ± 2	–	1.7 ± 0.05
353.05 K, x1 = 0.75	1065 ± 2	–	2.42 ± 0.07
371.9 K, x1 = 0.75	–	0.281 ± 0.006	–
372 K, x1 = 0.25	–	0.423 ± 0.009	–
372.8 K, x1 = 0.5	–	0.33 ± 0.007	–
373.45 K, x1 = 0.75	1049 ± 2	–	1.62 ± 0.05
374.85 K, x1 = 0.25	1013 ± 2	–	–
376.05 K, x1 = 0.5	1035 ± 2	–	–
378.85 K, x1 = 0.25	–	–	0.689 ± 0.021
380.05 K, x1 = 0.5	–	–	1.07 ± 0.03
383.35 K, x1 = 0.75	1041 ± 2	–	1.37 ± 0.04
390.25 K, x1 = 0.5	1023 ± 2	–	–
393.2 K, x1 = 0.75	1033 ± 2	–	1.18 ± 0.04
394.25 K, x1 = 0.5	–	–	0.87 ± 0.03
395.9 K, x1 = 0.25	–	0.428 ± 0.009	–
396.8 K, x1 = 0.75	–	0.28 ± 0.006	–
396.95 K, x1 = 0.25	995.5 ± 2.2	–	–
397 K, x1 = 0.5	–	0.332 ± 0.007	–
400.95 K, x1 = 0.25	–	–	0.518 ± 0.017
403.15 K, x1 = 0.75	1025 ± 2	–	1.02 ± 0.03
404.75 K, x1 = 0.75	1023 ± 2	–	–
406.05 K, x1 = 0.5	1010 ± 2	–	–
407.75 K, x1 = 0.75	–	–	0.978 ± 0.03
410.05 K, x1 = 0.5	–	–	0.706 ± 0.022
413.15 K, x1 = 0.75	1016 ± 2	–	0.903 ± 0.027
417.15 K, x1 = 0.25	977.4 ± 2.2	–	–
418.35 K, x1 = 0.75	1012 ± 2	–	–
419.9 K, x1 = 0.75	–	0.279 ± 0.006	–
421 K, x1 = 0.25	–	0.432 ± 0.009	–
421.15 K, x1 = 0.25	–	–	0.418 ± 0.014
421.7 K, x1 = 0.5	–	0.32 ± 0.007	–
422.35 K, x1 = 0.75	–	–	0.806 ± 0.025
423.55 K, x1 = 0.5	994.5 ± 2.2	–	–
427.55 K, x1 = 0.5	–	–	0.573 ± 0.018
431.55 K, x1 = 0.25	964.9 ± 2.2	–	–
431.95 K, x1 = 0.75	1000 ± 2	–	–
435.55 K, x1 = 0.25	–	–	0.366 ± 0.012
435.95 K, x1 = 0.75	–	–	0.691 ± 0.022
436.65 K, x1 = 0.5	982.5 ± 2.2	–	–
440.65 K, x1 = 0.5	–	–	0.5 ± 0.02
441.6 K, x1 = 0.75	–	0.276 ± 0.006	–
445.85 K, x1 = 0.75	987 ± 2	–	–
449.85 K, x1 = 0.75	–	–	0.594 ± 0.019

OCCOCCO [diethylene glycol]
[1]
Details	viscosity [mPa·s]
294.2 K	35.1 ± 0.7
313.05 K	15.1 ± 0.3
333.05 K	7.64 ± 0.16
353.05 K	4.41 ± 0.09
373.6 K	2.76 ± 0.06
393.4 K	1.92 ± 0.04
413.25 K	1.41 ± 0.03
428.15 K	1.15 ± 0.03
